Columns and labels:
Type in all cases: in vivo
[1] = test system: Centrus echinatus (CCHEC); test: B3 drilled field trial Brazil, post-emergence, CCHEC; conditions: 28 days after application
Protocol: (§1) Seeds of a variety of test species were used in drilled field trials to look at the control of important weed species present in corn crops as well as the effect on soybean (a volunteer crop in corn). Trials were carried out in Brazil in the summer season and the second season.
(§2) Plot size was 10-15 m^2, and two replicates were carried out per treatment. Plants were treated post-emergence between the 2 and 4 leaf stage. Species tested were Amaranthus retroflexus (AMARE), Ipomoea grandifolia (IAQGR), Digitaria horizontalis (DIGHO), Bidens pilosa (BIDPI), Eleusine indica (ELEIN), Brachiaria decumbens (BRADC), Centrus echinatus (CCHEC), Euphorbia heterophylla (EPPHL), Brachiaria plantaginea (BRAPL) and Glycine max (GLXMA; soybean). Fungicides and insecticides were used as necessary for plant health. The test was evaluated at 28 days after application with 100=total damage to plant and 0=no damage to plant.
(§3) Expected results were calculated using the Colby Formula.

[2] = test system: soybean (Glycine max GLXMA); test: B2 drilled field trial Brazil, post-emergence, soybean; conditions: 100=total damage, 0=no damage; for GLXMA 9DAA Observed: 9 days after application; for GLXMA 37 DAA Observed: 37 days after application
Protocol: (§4) Seeds of a variety of test species were used in drilled field trials to look at the control of important weed species present in corn crops as well as the effect on soybean (a volunteer crop in corn). Trials were carried out in Brazil in the summer season.
(§5) Plot size was 10-12 m^2, and two replicates were carried out per treatment. Plants were treated post-emergence at the 4 leaf stage. Fungicides and insecticides were used as necessary for plant health. The test was evaluated at 7 and 30 days after application (Amaranthus viridis (AMAVI), Bidens pilosa (BIDPI), Euphorbia heterophylla (EPPHL)) and 9 and 37 days after application (Brachiaria plantaginea (BRAPL) and soybean (Glycine max GLXMA) with 100=total damage to plant and 0=no damage to plant.
as §3

[3] = test system: Euphorbia heterophylla (EPPHL); test: B2 drilled field trial Brazil, post-emergence, EPPHL; conditions: 100=total damage, 0=no damage; for EPPHL 7DAA Observed: 7 days after application; for EPPHL 30 DAA Observed: 30 days after application
Protocol: as §4, §5, §3

[4] = test system: Euphorbia heterophylla (EPPHL); test: B3 drilled field trial Brazil, post-emergence, EPPHL; conditions: Summer season, 28 days after application
Protocol: as §1, §2, §3

[5] = test system: Brachiaria plantaginea (BRAPL); test: B3 drilled field trial Brazil, post-emergence, BRAPL; conditions: Summer season, 28 days after application
Protocol: as §1, §2, §3

[6] = test system: Amaranthus retroflexus (AMARE); test: B3 drilled field trial Brazil, post-emergence, AMARE; conditions: 28 days after application, 100=total damage, 0=no damage
Protocol: as §1, §2, §3

Eleusine indica (ELEIN) = test: B3 drilled field trial Brazil, post-emergence, ELEIN; conditions: 28 days after application
Protocol: as §1, §2, §3

[7] = test system: Digitaria horizontalis (DIGHO); test: B3 drilled field trial Brazil, post-emergence, DIGHO; conditions: 28 days after application
Protocol: as §1, §2, §3

[8] = test system: Brachiaria decumbens (BRADC); test: B3 drilled field trial Brazil, post-emergence, BRADC; conditions: 28 days after application
Protocol: as §1, §2, §3

[9] = test system: Amaranthus viridis (AMAVI); test: B2 drilled field trial Brazil, post-emergence, AMAVI; conditions: 100=total damage, 0=no damage; for AMAVI 7DAA Observed: 7 days after application; for AMAVI 30 DAA Observed: 30 days after application
Protocol: as §4, §5, §3

[10] = test system: Brachiaria plantaginea (BRAPL); test: B2 drilled field trial Brazil, post-emergence, BRAPL; conditions: 100=total damage, 0=no damage; for BRAPL 9DAA Observed: 9 days after application; for BRAPL 37 DAA Observed: 37 days after application
Protocol: as §4, §5, §3

Bidens pilosa (BIDPI) [11] = test: B2 drilled field trial Brazil, post-emergence, BIDPI; conditions: 100=total damage, 0=no damage; for BIDPI 7DAA Observed: 7 days after application; for BIDPI 30 DAA Observed: 30 days after application
Protocol: as §4, §5, §3

[12] = test system: Glycine max (GLXMA; soybean); test: B3 drilled field trial Brazil, post-emergence, soybean; conditions: 28 days after application
Protocol: as §1, §2, §3

[13] = test system: Ipomoea grandifolia (IAQGR); test: B3 drilled field trial Brazil, post-emergence, IAQGR; conditions: 28 days after application
Protocol: as §1, §2, §3

Bidens pilosa (BIDPI) [14] = test: B3 drilled field trial Brazil, post-emergence, BIDPI; conditions: 28 days after application
Protocol: as §1, §2, §3

## CCOC1C(O)N(c2cc(C(C)(C)C)on2)C(=O)N1C (stereo not drawn) [Compound 1.4]
[1]; Second season, 50 g ai/ha
  Observed damage (100=total damage to plant, 0=no damage): 0
[1]; Second season, 75 g ai/ha
  Observed damage (100=total damage to plant, 0=no damage): 0
[1]; Second season, 100 g ai/ha
  Observed damage (100=total damage to plant, 0=no damage): 0
[1]; Second season, 150 g ai/ha
  Observed damage (100=total damage to plant, 0=no damage): 0
[1]; Summer season, 50 g ai/ha
  Observed damage (100=total damage to plant, 0=no damage): 0
[1]; Summer season, 75 g ai/ha
  Observed damage (100=total damage to plant, 0=no damage): 0
[1]; Summer season, 100 g ai/ha
  Observed damage (100=total damage to plant, 0=no damage): 0
[1]; Summer season, 150 g ai/ha
  Observed damage (100=total damage to plant, 0=no damage): 0
[2]; 75 g ai/ha
  GLXMA 9DAA Observed: 63
  GLXMA 37 DAA Observed: 45
[2]; 100 g ai/ha
  GLXMA 9DAA Observed: 55
  GLXMA 37 DAA Observed: 0
[2]; 150 g ai/ha
  GLXMA 9DAA Observed: 73
  GLXMA 37 DAA Observed: 30
[3]; 75 g ai/ha
  EPPHL 7DAA Observed: 25
  EPPHL 30 DAA Observed: 18
[3]; 100 g ai/ha
  EPPHL 7DAA Observed: 30
  EPPHL 30 DAA Observed: 25
[3]; 150 g ai/ha
  EPPHL 7DAA Observed: 48
  EPPHL 30 DAA Observed: 25
[4]; 50 g ai/ha
  Observed damage (100=total damage to plant, 0=no damage): 38
[4]; 75 g ai/ha
  Observed damage (100=total damage to plant, 0=no damage): 58
[4]; 100 g ai/ha
  Observed damage (100=total damage to plant, 0=no damage): 46
[4]; 150 g ai/ha
  Observed damage (100=total damage to plant, 0=no damage): 52
[5]; 50 g ai/ha
  Observed damage (100=total damage to plant, 0=no damage): 13
[5]; 75 g ai/ha
  Observed damage (100=total damage to plant, 0=no damage): 34
[5]; 100 g ai/ha
  Observed damage (100=total damage to plant, 0=no damage): 30
[5]; 150 g ai/ha
  Observed damage (100=total damage to plant, 0=no damage): 31
[6]; 50 g ai/ha
  AMARE Second season Observed: 12
  AMARE Summer season Observed: 73
[6]; 75 g ai/ha
  AMARE Second season Observed: 14
  AMARE Summer season Observed: 80
[6]; 100 g ai/ha
  AMARE Second season Observed: 39
  AMARE Summer season Observed: 90
[6]; 150 g ai/ha
  AMARE Second season Observed: 52
  AMARE Summer season Observed: 100
Eleusine indica (ELEIN); Second season, 50 g ai/ha
  Observed damage (100=total damage to plant, 0=no damage): 8
Eleusine indica (ELEIN); Second season, 75 g ai/ha
  Observed damage (100=total damage to plant, 0=no damage): 11
Eleusine indica (ELEIN); Second season, 100 g ai/ha
  Observed damage (100=total damage to plant, 0=no damage): 11
Eleusine indica (ELEIN); Second season, 150 g ai/ha
  Observed damage (100=total damage to plant, 0=no damage): 14
Eleusine indica (ELEIN); Summer season, 50 g ai/ha
  Observed damage (100=total damage to plant, 0=no damage): 18
Eleusine indica (ELEIN); Summer season, 75 g ai/ha
  Observed damage (100=total damage to plant, 0=no damage): 25
Eleusine indica (ELEIN); Summer season, 100 g ai/ha
  Observed damage (100=total damage to plant, 0=no damage): 33
Eleusine indica (ELEIN); Summer season, 150 g ai/ha
  Observed damage (100=total damage to plant, 0=no damage): 53
[7]; Second season, 50 g ai/ha
  Observed damage (100=total damage to plant, 0=no damage): 0
[7]; Second season, 75 g ai/ha
  Observed damage (100=total damage to plant, 0=no damage): 0
[7]; Second season, 100 g ai/ha
  Observed damage (100=total damage to plant, 0=no damage): 0
[7]; Second season, 150 g ai/ha
  Observed damage (100=total damage to plant, 0=no damage): 0
[7]; Summer season, 50 g ai/ha
  Observed damage (100=total damage to plant, 0=no damage): 23
[7]; Summer season, 75 g ai/ha
  Observed damage (100=total damage to plant, 0=no damage): 45
[7]; Summer season, 100 g ai/ha
  Observed damage (100=total damage to plant, 0=no damage): 45
[7]; Summer season, 150 g ai/ha
  Observed damage (100=total damage to plant, 0=no damage): 69
[8]; Second season, 50 g ai/ha
  Observed damage (100=total damage to plant, 0=no damage): 13
[8]; Second season, 75 g ai/ha
  Observed damage (100=total damage to plant, 0=no damage): 21
[8]; Second season, 100 g ai/ha
  Observed damage (100=total damage to plant, 0=no damage): 25
[8]; Second season, 150 g ai/ha
  Observed damage (100=total damage to plant, 0=no damage): 43
[8]; Summer season, 50 g ai/ha
  Observed damage (100=total damage to plant, 0=no damage): 18
[8]; Summer season, 75 g ai/ha
  Observed damage (100=total damage to plant, 0=no damage): 28
[8]; Summer season, 100 g ai/ha
  Observed damage (100=total damage to plant, 0=no damage): 25
[8]; Summer season, 150 g ai/ha
  Observed damage (100=total damage to plant, 0=no damage): 30
[9]; 75 g ai/ha
  AMAVI 7DAA Observed: 10
  AMAVI 30 DAA Observed: 13
[9]; 100 g ai/ha
  AMAVI 7DAA Observed: 20
  AMAVI 30 DAA Observed: 20
[9]; 150 g ai/ha
  AMAVI 7DAA Observed: 40
  AMAVI 30 DAA Observed: 40
[10]; 75 g ai/ha
  BRAPL 9DAA Observed: 18
  BRAPL 37 DAA Observed: 0
[10]; 100 g ai/ha
  BRAPL 9DAA Observed: 15
  BRAPL 37 DAA Observed: 0
[10]; 150 g ai/ha
  BRAPL 9DAA Observed: 23
  BRAPL 37 DAA Observed: 0
Bidens pilosa (BIDPI) [11]; 75 g ai/ha
  BIDPI 7DAA Observed: 8
  BIDPI 30 DAA Observed: 8
Bidens pilosa (BIDPI) [11]; 100 g ai/ha
  BIDPI 7DAA Observed: 10
  BIDPI 30 DAA Observed: 13
Bidens pilosa (BIDPI) [11]; 150 g ai/ha
  BIDPI 7DAA Observed: 28
  BIDPI 30 DAA Observed: 20
[12]; Second season, 50 g ai/ha
  Observed damage (100=total damage to plant, 0=no damage): 44
[12]; Second season, 75 g ai/ha
  Observed damage (100=total damage to plant, 0=no damage): 56
[12]; Second season, 100 g ai/ha
  Observed damage (100=total damage to plant, 0=no damage): 79
[12]; Second season, 150 g ai/ha
  Observed damage (100=total damage to plant, 0=no damage): 86
[12]; Summer season, 50 g ai/ha
  Observed damage (100=total damage to plant, 0=no damage): 44
[12]; Summer season, 75 g ai/ha
  Observed damage (100=total damage to plant, 0=no damage): 49
[12]; Summer season, 100 g ai/ha
  Observed damage (100=total damage to plant, 0=no damage): 60
[12]; Summer season, 150 g ai/ha
  Observed damage (100=total damage to plant, 0=no damage): 83
[13]; Second season, 50 g ai/ha
  Observed damage (100=total damage to plant, 0=no damage): 0
[13]; Second season, 75 g ai/ha
  Observed damage (100=total damage to plant, 0=no damage): 3
[13]; Second season, 100 g ai/ha
  Observed damage (100=total damage to plant, 0=no damage): 36
[13]; Second season, 150 g ai/ha
  Observed damage (100=total damage to plant, 0=no damage): 69
[13]; Summer season, 50 g ai/ha
  Observed damage (100=total damage to plant, 0=no damage): 33
[13]; Summer season, 75 g ai/ha
  Observed damage (100=total damage to plant, 0=no damage): 38
[13]; Summer season, 100 g ai/ha
  Observed damage (100=total damage to plant, 0=no damage): 68
[13]; Summer season, 150 g ai/ha
  Observed damage (100=total damage to plant, 0=no damage): 100
Bidens pilosa (BIDPI) [14]; Second season, 50 g ai/ha
  Observed damage (100=total damage to plant, 0=no damage): 46
Bidens pilosa (BIDPI) [14]; Second season, 75 g ai/ha
  Observed damage (100=total damage to plant, 0=no damage): 46
Bidens pilosa (BIDPI) [14]; Second season, 100 g ai/ha
  Observed damage (100=total damage to plant, 0=no damage): 48
Bidens pilosa (BIDPI) [14]; Second season, 150 g ai/ha
  Observed damage (100=total damage to plant, 0=no damage): 60
Bidens pilosa (BIDPI) [14]; Summer season, 50 g ai/ha
  Observed damage (100=total damage to plant, 0=no damage): 18
Bidens pilosa (BIDPI) [14]; Summer season, 75 g ai/ha
  Observed damage (100=total damage to plant, 0=no damage): 38
Bidens pilosa (BIDPI) [14]; Summer season, 100 g ai/ha
  Observed damage (100=total damage to plant, 0=no damage): 28
Bidens pilosa (BIDPI) [14]; Summer season, 150 g ai/ha
  Observed damage (100=total damage to plant, 0=no damage): 47

Reference: patent US20190239509A1, “METHOD OF CONTROLLING PLANTS” (SYNGENTA PARTICIPATIONS AG, priority 2016, published 2019)
